This note sets out measurements from patent publication US10472352B2, “Rac inhibitors” (Geneyus LLC, priority 2017, dated 2019).

Data set [1] addresses His-Rac1 / GST-PBD (PAK Binding Domain) (Homo sapiens, UniProt P63000). Kind of data set: Rac Activation AlphaScreen Assay (Rac1 AS). Format: biochemical. Particulars: 500 nM GTPγS, 37° C., 1 hour; 'positive' = signal generated was higher than the positive control. How it is done:
AlphaScreen® assays were performed in 96-well microplates in a final reaction volume of 60 μl. Recombinant His-Rac1, recombinant GST-PBD (PAK Binding Domain), donor and acceptor beads (PerkinElmer), and inhibitors were incubated in exchange buffer (20 mM Tris pH 7.5, 50 mM NaCl, 1 mM MgCl2, 1 mM EDTA, 500 nM GTPγS (guanosine 5′-[γ-thio]triphosphate)) at 37° C. Readings were performed on a Tecan M1000 pro microplate reader after 1 hour.

Data set [2] addresses T1, Rac1 protein (Homo sapiens, UniProt P63000).
T1 construct: purchased Cytoskeleton Inc. RC01
Kind of data set: Fluorescence Polarization Assay (Rac1 FP). Format: binding. The conditions noted are these: 125 nM his-tagged Rac1, 12.5 nM Bodipy-TR GTPγS, 30 minutes at 37° C. The procedure:
Direct binding of Rac1 compound inhibitors to Rac1 protein was performed using fluorescence polarization (FP). Briefly, Rac1 inhibitors were initially dissolved in DMSO and then serial drug dilutions in exchange buffer (20 mM Tris pH 7.5, 50 mM NaCl, 1 mM MgCl, 1 mM EDTA) were prepared in a flat black 96-well half-area plate (Greiner). Recombinant his-tagged Rac1 protein (Cytoskeleton Inc. Cat. # RC01) was added to the inhibitors at a final concentration of 125 nM along with 12.5 nM Bodipy-TR GTPγS (Life Technologies Inc. Cat. # G35780) in exchange buffer and incubated for 30 minutes at 37° C. in exchange buffer. After 30 minutes of incubation. FP was measured on the M1000 Pro (Tecan) fluorescent plate reader with 590 nm±5 nm excitation and 625 nm±5 nm emission spectra settings.
For orientation: Polarisation of emitted light reports the rotation of a fluorescent probe.

Data set [3] concerns MCF-7 human breast cancer cell line. Description: Cell Viability Assay (MCF7), PrestoBlue. The format is cell-based. Particulars: MCF7, 72 h, MCF-7 cells, three days after drug treatment. The procedure: In order to determine a compound's effect on cell viability, PrestoBlue assays were performed as previously described by Kuhn et al. (2013) with modifications. MCF-7 human breast cancer and IGR-1 human melanoma cell lines were seeded into 96-well plates 24 hours prior to addition of drug. Cells were treated with 0 to 200 μM (11 concentrations) of compound solubilized in DMSO, adjusting the final concentration of DMSO to 1% in the well. Three days after drug treatment, cell viability was measured by adding PrestoBlue (Life Technologies Ltd.; cat. No. A13262) reagent directly to wells containing media/drug to reach a final concentration of 10%. PrestoBlue is a modified molecule of the common Alamar Blue probe used to determine viability based on the ability of a cell to metabolize a nonfluorescent compound (resazurin) to a florescent molecule (resorufin). Following a 1 hour incubation period, total well fluorescence was measured using the microplate reader M1000 pro (Tecan) with excitation 560-5 nm and emission 590-5 nm. […] The percentage of living cells was then computed by comparison with control wells. Kuhn, Jonas et al., Assay and Drug Development Technologies, March 2013, Label-Free Cytotoxicity Screening Assay by Digital Holographic Microscopy.

The test system of data set [4] is BT474 breast cancer cells. Description: BT474 Four (4) Day Cell Viability Assay. The format is cell-based. Particulars: BT474, 4 days, 32661 0 μM, fulvestrant 0.0 nM. The procedure: BT474 breast cancer cells that are Estrogen Receptor Positive and HER2+ were grown in 5% cFBS. 5,000 cells were seeded into each well of a 96-well plate and treated with escalating doses of lapatinib, fulvestrant, and 32661.

As to `Fc1ccc2c(SCCCCCCn3cc(CN4CCOCC4)nn3)ccnc2c1` [Compound 0032833, 7-fluoro-4-{(6-[4-(morpholin-4-ylmethyl)-1H-1,2,3-triazol-1-yl]hexyl}sulfanyl) quinoline], the “Rac1 AS IC50(uM)” value in data set [1] was “positive”. In addition, the results for the IC50 in data set [2] and in data set [3] were 4.32 µM and 7.8 µM, respectively.

Consider `FC(F)(F)c1ccc2c(SCCCCCCn3ccc(CN4CCOCC4)n3)ccnc2c1` [Compound 0032897, 4-({6-[3-(morpholin-4-ylmethyl)-1H-pyrazol-1-yl]hexyl}sulfanyl)-7-(trifluoromethyl) quinoline], for which the IC50 in data set [1] worked out at 35 µM; in data set [2] it was 2.79 µM; in data set [3] it was 11.6 µM.

In the case of `O=C1COCCN1c1cccc(NCCCCCCSc2ccnc3cc(C(F)(F)F)ccc23)c1` [Compound 0033306, 4-(3-{(6-{[7-(trifluoromethyl)quinolin-4-yl]sulfanyl)hexyl}amino]phenyl} morpholin-3-one], the IC50 in data set [1] was 8.2 µM; in data set [2], 1.54 µM; in data set [3], 3.58 µM.

With `COc1ccc(N2CCN(Cc3cn(CCCCCCSc4ccnc5cc(C(F)(F)F)ccc45)nn3)CC2)cc1` [Compound 0032956, 4-{[6-(4-{[4-(4-methoxyphenyl)piperazin-1-yl]methyl}-1H-1,2,3-triazol-1-yl)hexyl]sulfanyl}-7-(trifluoromethyl) quinoline], the IC50 in data set [1] worked out at 8.2 µM; in data set [2], 1.41 µM; in data set [3], 10.7 µM.

As for `O=C(NCc1cn(CCCCCCSc2ccnc3cc(C(F)(F)F)ccc23)nn1)C1CCCCC1` [Compound 0032896, N-{[1-(6-{[7-(trifluoromethyl)quinolin-4-yl]sulfanyl}hexyl)-1H-1,2,3-triazol-4-yl]methyl} cyclohexane-carboxamide], in data set [1], the “Rac1 AS IC50(uM)” value is reported as “positive”. Besides, the values for the IC50 in data set [2] and in data set [3] were 4.76 µM and 13.8 µM, respectively.

Consider `COc1ccc(NCc2cn(CCCCCCSc3ccnc4cc(C(F)(F)F)ccc34)cn2)cc1` [Compound 0032881, 4-methoxy-N-{[1-(6-{[7-(trifluoromethyl)quinolin-4-yl]sulfanyl}hexyl)-1H-imidazol-4-yl]methyl}aniline], for which the half-maximal inhibitory concentration (IC50) in data set [1] was found to be 6 µM; in data set [2], 0.249 µM; in data set [3], 6.8 µM.

As for `FC(F)(F)c1ccc2c(SCCCCCCNc3ccc(N4CCOCC4)cc3)ccnc2c1` [Compound 0033200, 4-(morpholin-4-yl)-N-(6-{[7-(trifluoromethyl)quinolin-4-yl]sulfanyl}hexyl)aniline], the IC50 in data set [1] is 2.3 µM; in data set [2], 0.71 µM; in data set [3], 10.8 µM.

Regarding `OC(c1ccccc1)c1cn(CCCCCCSc2ccnc3cc(C(F)(F)F)ccc23)cn1` (stereo not shown) [Compound 0033043, phenyl[1-(6-{[7-(trifluoromethyl)quinolin-4-yl]sulfanyl}hexyl)-1H-imidazol-4-yl]methanol], the IC50 was 9.6 µM in data set [1], 100 µM in data set [2] and 7.8 µM in data set [3].

With `NC1CCN(c2ccc(NCCCCCCSc3ccnc4cc(C(F)(F)F)ccc34)cc2)CC1` [Compound 0033278, 1-{4-[(6-{[7-(trifluoromethyl)quinolin-4-yl]sulfanyl}hexyl)amino]phenyl} piperidin-4-amine], the IC50 is 1.1 µM in data set [1], 2.32 µM in data set [2] and 7.6 µM in data set [3].

For `CS(=O)(=O)CCNCc1ccc(-c2ccc3ncnc(Nc4ccc(OCc5cccc(F)c5)c(Cl)c4)c3c2)o1` [Lapatinib, lapatinib, reference compound], the cellular viability in data set [4] (lapatinib 6.9 nM) worked out at 99%; in data set [4] (lapatinib 20.6 nM), 96%; in data set [4] (lapatinib 61.7 nM), 80%; in data set [4] (lapatinib 185.2 nM), 75%; in data set [4] (lapatinib 555.6 nM), 77%; in data set [4] (lapatinib 1666.7 nM), 68%. Besides, the cellular viability in data set [4] (lapatinib 3333.0 nM) is recorded as 60%.

In general, IC50 refers to the concentration that inhibits the measured activity by half. A high value points to lower potency.
